Test results: ChEMBL document CHEMBL4376854, “Investigation of the Adrenergic and Opioid Binding Affinities, Metabolic Stability, Plasma Protein Binding Properties, and Functional Effects of Selected Indole-Based Kratom Alkaloids” (J Med Chem, 2020)
pKi: −log10 of the molar value. The source made the active and inactive calls. The rule behind the calls is not given here.

Tests used:
[1] = target: T1, Delta-type opioid receptor (Homo sapiens, UniProt P41143); test: Displacement of [3H]DADLE from human recombinant delta opioid receptor expressed in rat Chem-1 (RBL) cell membranes at 100 nM incubated for 60 mins relative to control
[2] = target: T1, Delta-type opioid receptor; test: Displacement of [3H]DADLE from human recombinant delta opioid receptor expressed in rat Chem-1 (RBL) cell membranes at 10000 nM incubated for 60 mins relative to control
[3] = target: T2, Kappa-type opioid receptor (Homo sapiens, UniProt P41145); test: Displacement of [3H]U69,593 from human recombinant kappa opioid receptor expressed in rat RBL cell membranes incubated for 60 mins
Rattus norvegicus [4] = test: Antinociceptive activity in Sprague-Dawley rat dosed intravenously using cumulative dosing every 5 mins until rat maxed-out on hot plate by hot plate test relative to control; type: functional
Rattus norvegicus [5] = test: Antinociceptive activity in Sprague-Dawley rat dosed intravenously using cumulative dosing every 5 mins until rat maxed-out on hot plate co-treated with 0.1 mg/kg naltrexone by hot plate test; type: functional, organism-based
[6] = Toxicity in Sprague-Dawley rat assessed as induction of hypothermia at 0.0032 to 10 mg/kg, iv; type: organism-based; details: in vivo
[7] = target: T3, Alpha-1A adrenergic receptor (Homo sapiens) (UniProt P35348); details: CHO, 100 nM
T3 sequence (whole entry): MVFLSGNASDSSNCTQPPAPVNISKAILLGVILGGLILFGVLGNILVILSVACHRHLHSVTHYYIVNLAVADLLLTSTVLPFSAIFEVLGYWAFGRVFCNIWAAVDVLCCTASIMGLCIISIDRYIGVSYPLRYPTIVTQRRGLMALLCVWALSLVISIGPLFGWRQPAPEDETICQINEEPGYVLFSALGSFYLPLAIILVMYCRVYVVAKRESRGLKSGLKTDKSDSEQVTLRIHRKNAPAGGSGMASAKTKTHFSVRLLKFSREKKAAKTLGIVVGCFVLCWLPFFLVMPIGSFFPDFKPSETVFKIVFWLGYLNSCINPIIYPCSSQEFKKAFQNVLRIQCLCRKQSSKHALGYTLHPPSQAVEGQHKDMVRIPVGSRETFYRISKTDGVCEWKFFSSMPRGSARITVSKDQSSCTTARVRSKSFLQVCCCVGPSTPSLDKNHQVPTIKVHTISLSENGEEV

[8] = target: T4, Alpha-1D adrenergic receptor (Homo sapiens) (UniProt P25100); details: CHO, 100 nM
T4 sequence (whole entry): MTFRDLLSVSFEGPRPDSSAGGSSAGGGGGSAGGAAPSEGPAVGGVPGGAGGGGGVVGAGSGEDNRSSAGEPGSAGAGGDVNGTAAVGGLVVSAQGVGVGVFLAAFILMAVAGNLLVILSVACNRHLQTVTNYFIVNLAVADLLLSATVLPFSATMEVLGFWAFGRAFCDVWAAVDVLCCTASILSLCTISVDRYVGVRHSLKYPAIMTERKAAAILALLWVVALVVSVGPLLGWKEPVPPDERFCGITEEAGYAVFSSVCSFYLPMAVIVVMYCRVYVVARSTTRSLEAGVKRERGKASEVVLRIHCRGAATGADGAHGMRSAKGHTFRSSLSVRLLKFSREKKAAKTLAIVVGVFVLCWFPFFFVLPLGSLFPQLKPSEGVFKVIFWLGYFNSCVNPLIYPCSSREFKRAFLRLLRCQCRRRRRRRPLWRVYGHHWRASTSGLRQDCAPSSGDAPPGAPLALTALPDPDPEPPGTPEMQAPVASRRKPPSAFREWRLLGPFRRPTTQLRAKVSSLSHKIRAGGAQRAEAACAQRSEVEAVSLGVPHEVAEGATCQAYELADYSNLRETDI

[9] = target: T2, Kappa-type opioid receptor; details: 100 nM
[10] = target: T3, Alpha-1A adrenergic receptor (Homo sapiens); details: CHO, 10000 nM
[11] = target: T5, Alpha-1B adrenergic receptor (Homo sapiens) (UniProt P35368); details: CHO, 10000 nM
T5 sequence (whole entry): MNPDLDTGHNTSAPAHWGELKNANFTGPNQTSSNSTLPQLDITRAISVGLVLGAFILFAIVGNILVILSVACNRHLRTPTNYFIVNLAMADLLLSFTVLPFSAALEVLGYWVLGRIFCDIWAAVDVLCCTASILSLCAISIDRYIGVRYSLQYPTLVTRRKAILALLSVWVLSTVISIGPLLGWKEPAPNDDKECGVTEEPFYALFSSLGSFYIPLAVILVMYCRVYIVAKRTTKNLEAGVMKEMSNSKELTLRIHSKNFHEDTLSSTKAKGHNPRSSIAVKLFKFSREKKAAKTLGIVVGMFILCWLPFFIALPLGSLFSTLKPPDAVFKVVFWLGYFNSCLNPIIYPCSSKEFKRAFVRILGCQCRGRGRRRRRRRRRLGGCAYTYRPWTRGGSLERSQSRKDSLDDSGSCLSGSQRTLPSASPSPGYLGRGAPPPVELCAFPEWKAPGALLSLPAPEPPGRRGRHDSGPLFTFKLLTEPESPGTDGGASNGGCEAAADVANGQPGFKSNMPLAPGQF

[12] = target: T4, Alpha-1D adrenergic receptor (Homo sapiens); details: CHO, 10000 nM
[13] = target: T6, Alpha-2A adrenergic receptor (Homo sapiens) (UniProt P08913); details: CHO, 10000 nM
T6 sequence (whole entry): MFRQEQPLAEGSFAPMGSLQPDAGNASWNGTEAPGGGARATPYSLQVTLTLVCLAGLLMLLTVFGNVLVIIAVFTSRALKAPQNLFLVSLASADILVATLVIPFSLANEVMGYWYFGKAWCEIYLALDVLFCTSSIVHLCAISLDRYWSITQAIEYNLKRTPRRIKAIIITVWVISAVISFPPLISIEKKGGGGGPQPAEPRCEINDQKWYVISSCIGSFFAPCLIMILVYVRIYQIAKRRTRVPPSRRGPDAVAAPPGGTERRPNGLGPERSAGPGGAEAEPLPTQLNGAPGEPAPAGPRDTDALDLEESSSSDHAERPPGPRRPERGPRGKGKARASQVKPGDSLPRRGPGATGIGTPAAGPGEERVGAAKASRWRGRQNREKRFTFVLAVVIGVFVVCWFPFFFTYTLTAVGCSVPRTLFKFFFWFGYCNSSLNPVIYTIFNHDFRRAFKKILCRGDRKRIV

Mu-type opioid receptor = Mu-type opioid receptor (Homo sapiens, UniProt P35372); details: HEK293, 10000 nM
[14] = target: Nociceptin receptor (Homo sapiens) (UniProt P41146); details: 10000 nM
[15] = human, microsomes, 1 h
[16] = human, microsomes, 1 µM

T1 sequence (P41143 whole entry): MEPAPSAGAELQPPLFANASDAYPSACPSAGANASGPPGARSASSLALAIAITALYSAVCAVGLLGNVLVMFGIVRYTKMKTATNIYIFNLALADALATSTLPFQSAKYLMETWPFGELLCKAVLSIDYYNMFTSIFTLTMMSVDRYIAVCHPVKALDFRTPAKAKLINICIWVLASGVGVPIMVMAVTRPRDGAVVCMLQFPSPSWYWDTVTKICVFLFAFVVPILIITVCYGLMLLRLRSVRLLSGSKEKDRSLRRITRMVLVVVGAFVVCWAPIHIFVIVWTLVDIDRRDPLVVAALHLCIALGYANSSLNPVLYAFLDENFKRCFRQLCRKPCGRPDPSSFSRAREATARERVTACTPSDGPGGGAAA
T2 sequence (P41145 whole entry): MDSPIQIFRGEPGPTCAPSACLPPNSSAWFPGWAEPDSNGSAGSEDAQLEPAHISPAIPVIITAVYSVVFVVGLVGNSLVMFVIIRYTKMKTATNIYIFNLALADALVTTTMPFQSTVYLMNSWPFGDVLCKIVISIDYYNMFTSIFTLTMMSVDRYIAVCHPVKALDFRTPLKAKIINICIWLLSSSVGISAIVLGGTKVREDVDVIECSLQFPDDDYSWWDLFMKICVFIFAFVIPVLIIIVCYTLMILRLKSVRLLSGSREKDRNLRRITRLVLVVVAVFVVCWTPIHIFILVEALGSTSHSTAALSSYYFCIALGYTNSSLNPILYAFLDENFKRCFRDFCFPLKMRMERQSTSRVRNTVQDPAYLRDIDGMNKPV
Chain of Mu-type opioid receptor (P35372 whole entry): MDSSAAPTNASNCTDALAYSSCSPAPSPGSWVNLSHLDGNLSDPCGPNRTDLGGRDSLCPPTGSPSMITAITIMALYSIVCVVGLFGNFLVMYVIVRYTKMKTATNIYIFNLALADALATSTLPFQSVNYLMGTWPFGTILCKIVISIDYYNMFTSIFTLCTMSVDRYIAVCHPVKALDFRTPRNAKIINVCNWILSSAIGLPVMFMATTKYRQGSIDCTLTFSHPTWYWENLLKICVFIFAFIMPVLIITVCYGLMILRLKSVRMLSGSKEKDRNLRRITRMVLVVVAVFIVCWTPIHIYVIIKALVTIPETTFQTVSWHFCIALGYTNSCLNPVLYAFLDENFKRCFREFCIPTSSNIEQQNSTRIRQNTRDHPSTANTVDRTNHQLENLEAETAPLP
Chain of Nociceptin receptor (Homo sapiens) (P41146 whole entry): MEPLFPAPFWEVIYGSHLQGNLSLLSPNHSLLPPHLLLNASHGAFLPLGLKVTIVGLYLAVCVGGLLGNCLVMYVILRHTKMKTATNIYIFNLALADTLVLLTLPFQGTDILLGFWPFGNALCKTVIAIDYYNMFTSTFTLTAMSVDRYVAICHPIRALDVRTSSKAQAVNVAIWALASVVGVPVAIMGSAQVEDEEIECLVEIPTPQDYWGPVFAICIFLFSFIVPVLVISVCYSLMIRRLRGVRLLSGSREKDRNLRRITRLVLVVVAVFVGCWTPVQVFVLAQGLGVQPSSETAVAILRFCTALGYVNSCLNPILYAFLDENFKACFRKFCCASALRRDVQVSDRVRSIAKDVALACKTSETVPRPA

SMILES	inhibition [1] [%]	inhibition [2] [%]	pKi [3]	Emax (Rattus norvegicus [4]; Rattus norvegicus, Sprague-Dawley, iv, 5 min) [%]	Activity (Rattus norvegicus [5])	Activity [6]	inhibition [7] [%]	inhibition [8] [%]	inhibition [9] [%]	inhibition [10] [%]	inhibition [11] [%]	inhibition [12] [%]	inhibition [13] [%]	inhibition (Mu-type opioid receptor) [%]	inhibition [14] [%]	Kel [15] [min⁻¹]	Fu [16]	MPE (Rattus norvegicus [4]) [%]
CC[C@@H]1CN2CCc3c([nH]c4cccc(OC)c34)[C@@H]2C[C@@H]1/C(=C\OC)C(=O)OC	0.4	18.3	6.70	17.3	inactive	Non-Toxic	13.2	-2.1	25.2	83.5	40.3	57.9	40.4	93.7	40.8	0.0347	0.307	–
CC[C@@H]1CN2CCc3c([nH]c4cccc(OC)c34)[C@H]2C[C@@H]1/C(=C\OC)C(=O)OC	0.6	69.2	6.94	–	inactive	Toxic	16.8	6.3	61.9	81.1	95.6	70.5	73.1	98	31.8	0.0166	0.276	100
